Each structure is given as a SMILES string.

One test deals with C26 tumor. The test can be described thus: Combinational efficacy of anti-PD-L1 and R848 in PD-L1 expressed C26 tumor model (Study No. R-BDB001-0008). Format: in vivo. The following applies: C26 s.c. in BALB/c mice; single agent, 3-week period. As to the method: The objective of this study was to determine the single or combinational efficacy of R848 and anti-PD-L1 monoclonal antibody in the C26 tumor model in immune-competent mouse. C26 cells were inoculated by subcutaneous injection into the right flank of BALB/c mice on Day 0. Tumors were monitored until they reached a mean tumor volume of between 60 and 100 mm3, inclusive. Mice were administered, over a 3-week period, 10 mg/kg IV (via tail vein) of rat anti-mouse PD-L1 monoclonal antibody alone twice weekly, 0.08 mg/kg of R848 alone once weekly, or a combination of anti-PD-L1 antibody and R848.
The differences in tumor inhibition by the combination treatment compared to that of each component is shown graphically (FIG. 6)) and was highly significant (p=0.0029, anti-PDL1 and R848 combined versus R848 alone; p=0.0074, anti-PDL1 and R848 combined versus anti-PDL1 alone).

The test system of test [1] is mouse colon adenocarcinoma 26 (C26) tumor. The test can be described thus: Combinational efficacy of R848 and anti-PD-1 antibody in PD-L1 expressed C26 tumor model. As to conditions: C26 s.c. in BALB/c mice; single agent, three-week period. Format: in vivo. On the procedure:
The objective of this study was to determine the single or combinational efficacy of R848 and anti-PD-1 monoclonal antibody in the mouse colon adenocarcinoma 26 (C26) tumor model in immune-competent mouse. C26 cells were inoculated by subcutaneous injection into the right flank of BALB/c mice on Day 0. Tumors were monitored until they reached a mean tumor volume of between 60 and 100 mm3. Mice were then administered over a three-week period 10 mg/kg IV (via tail vein) of rat anti-mouse PD-1 monoclonal antibody alone twice weekly, 0.08 mg/kg of R848 alone once weekly, or a combination of anti-PD-1 antibody and R848. Tumor volumes were recorded twice weekly over the course of the study and the mice were observed regularly. Tumor-bearing mice (treatment, control) were sacrificed at Day 26 or if they became moribund before the tumor volume reached 2000 mm3. […] The differences in tumor inhibition by the combination treatment compared to that of each component is shown graphically (FIG. 5) and was highly significant (p=0.0002, anti-PD-1 and R848 combined versus R848 alone; p=0.0063 anti-PD-1 and R848 combined versus anti-PD-1 alone).

In the case of `CCOCc1nc2c(N)nc3ccccc3c2n1CC(C)(C)O` [R848, 4-amino-2-(ethoxymethyl)-a,a-di-methyl-1H-imidazo[4,5-c]quinoline-1-ethanol], the “inhibition in tumor growth” value (in the test on C26 tumor; in test [1]) was “Limited inhibition” throughout.

The values are drawn from patent US11279761B2, “Anti-PD-L1 combinations for treating tumors” (BIRDIE BIOPHARMACEUTICALS, INC., priority 2014, dated 2022).
